Patent US4543256A, “(-)-10,1L Methylenedioxy-N-N-propylnoraporphine and methods employing it for inhibiting the effects of epileptic seizures and for prevention and treatment of duodenal ulcers” (Northeastern University, priority 1982, dated 1985)
Where a name gives a salt, the structure may show the parent alone. Read-outs that look alike come from different tables or passages of the source.

Legend:
[1] = test system: duodenal ulcers; experiment: Cysteamine-induced duodenal ulcer in the rat; conditions: for Duodenal Ulcer Intensity (Scale: 0-3): control 1.8; for Duodenal Ulcer Incidence (Positive/Total): control 10/12
[2] = test system: rats; experiment: Stereotyped behavior of rats (rating scale; score, onset and duration); assay type: in vivo, rat (male Sprague-Dawley); conditions: for Stereotypy (percent of the maximum possible score): 100%=18.0, placebo 4.4±2.5%, N=3 to 6; for Stereotypy Score: rated one hour, maximum 18, N=6, mean ±SEM; for Duration of Effect (stereotypy): complete when scores ≤3; for stereotypy scores: NPA 3 mg/kg i.p., N=6
Protocol: (§1) Male Sprague-Dawley (Charles River Labs.) rats (initially 175-200 g) were housed four per cage, with free access to food and water, under controlled lighting (on 7:00 a.m. to 7:00 p.m.), constant temperature 21°-23° C. and controlled humidity (40-50%). Aporphines were administered, as described below, freshly dissolved in 1 mM citric acid mixed with 0.9% (w/v) saline (1:4, vols.); this solvent was also used as a vehicle ("placebo") control. Haloperidol was given in the same medium; 2-diethyl aminoethyl-2,2 diphenylvalerate HCl (SKF-525A) was given in saline.
Stereotyped behavior was evaluated by a trained observer according to a rating scale method reported previously (Campbell and Baldessarini, 1981a). Briefly, the ratings were as follows: 0, no stereotypy, normal locomotion; 1, discontinuous sniffing, reduced locomotion; 2, continuous sniffing, only periodic exploration; 3, continuous sniffing, mouth movements, infrequent, exploratory activity, Ratings were made each 10 min. by observation for 30 sec, typically for 60 min. (maximum score=18.0/hour).
(§2) In all experiments except those which evaluated the time-course of drug effects, rats were given an injection of vehicle and then allowed to rest for 15 min. to adapt to nonspecific arousal effects, prior to a second injection of test agent (or placebo) and immediate behavioral testing. Behavioral data were evaluated by Student's t-test and are always expressed as mean ±SEM.
Data are mean values ±SEM for N=6 rats per group given doses of each aporphine (1mg/kg/, or approximately 3 umole/kg) by orogastric intubation (P.O.), or subcutaneous (S.C.) or intraperitoneal (I.P.) injection. Stereotypy was rated for one hour as described in Methods and duration is defined as complete when scores diminished to ≤3 (out of a maximum possible score of 18).
Data are mean values ±SEM (N=4 to 8 rats per condition). […] N.D. indicates "not determined." (*) Indicates a significant difference by t-test between control and oxidase inhibitor-pretreated rats (p<0.01).
Stereotypy was rated for 60 min as described in Methods. Data are means SEM (stereotypy scores, when 18=maximum in 1 hour) for N=6 rats per group; (*) indicates p<0.0001 by t test.
Data are mean values ±SEM (N=3 to 6 rats per condition) for effects of seven aporphine compounds (R=substituents, keyed to the structure above). Full chemical names for all compounds are provided in Methods. […] Data are provided for a dose of 10 mg/kg (i.p.), although doses of 1 and 5 mg/kg were also tested.

[3] = test system: rats; experiment: Locomotor (general motor) activity, electronic activity monitor; assay type: in vivo, rat (male Sprague-Dawley)
Protocol: as §1
Locomotor activity was evaluated by use of a printing electronic activity monitor (EAM, Stoelting Co., Chicago, IL) within a sound-attenuated chamber, typically for 60 min., as described previously (Stewart, Campbell, Sperk and Baldessarini, 1979, Psychopharmacology 60 281-289; Campbell and Baldessarini, 1981a, Psychopharmacology 73:219-222.
as §2
Data are mean values ±SEM (N=4 to 8 rats per condition). Animals were pretreated with SKF-525A (40 mg/kg, i.p.) or its vehicle 30 min before MDO-NPA (in the doses noted, from 0 to 3 mg/kg, i.p.). Activity was then monitored electronically for an hour after the low doses of MDO-NPA (data in counts/hour), or rated for stereotypy every 10 min for an hour after higher doses. N.D. indicates "not determined." (*) Indicates a significant difference by t-test between control and oxidase inhibitor-pretreated rats (p<0.01).
Data are mean values ±SEM (N=3 to 6 rats per condition) for effects of seven aporphine compounds (R=substituents, keyed to the structure above). Full chemical names for all compounds are provided in Methods. Ratings are expressed as percent of the maximum possible score (100%)=18.0) of stereotypy (Placebo-injected controls yielded scores of 4.4±2.5%); and as the percent of control locomotor activity (100%=430±86 counts/hr). Data are provided for a dose of 10 mg/kg (i.p.), although doses of 1 and 5 mg/kg were also tested.

[4] = in vivo, cited from earlier work
[5] = test system: Adenylate cyclase; experiment: Adenylate cyclase stimulation (cAMP) in rat striatal homogenates; assay type: biochemical; conditions: 50 μM; control (no addition) 2.38 ± 0.14; p < 0.01; N=4
Text: of cAMP in rat striatal homogenates; inhibition of binding of

[6] = test system: gastric acid output; conditions: rats given cysteamine or propionitrile; previous studies; cited from earlier work
[7] = 10 mg/kg i.p.; 100%=430±86 counts/hr; N=3 to 6
[8] = 50 μg/100g s.c. once daily seven days
[9] = 100 μg/100g s.c. once daily seven days
[10] = SKF-525A 40 mg/kg i.p. alone (MDO-NPA dose 0)

In the case of `CC(C)(C)C1(O)CCN2CC3c4ccccc4CCc4cccc(c43)C2C1` (single isomer, unassigned; (+)) [(+)-butaclamol, reference compound], the “effect on the beneficial effect of NPA and MDO-NPA” value ([1]; combined with NPA or MDO-NPA) is reported as “reversed the beneficial effect of NPA and MDO-NPA” and the “effect on cysteamine-induced duodenal ulcers” value ([1]; rats given cysteamine) is reported as “aggravated the experimental duodenal ulcers”.

In the case of `CCCCCC1(C)Oc2ccc3c(c2O1)-c1cccc2c1C(C3)N(CCC)CC2.Cl` (single isomer, unassigned; (-)) [Methyl-pentyl-MDO--NPA, (-) 10,11-Heptylidene-2-dioxy-N-n-propylnoraporphine-HCl], the “Stereotypy (percent of the maximum possible score)” value ([2]; 10 mg/kg i.p.) is reported as 11.1 ± 5.7% and the “Locomotion (percent of control locomotor activity)” value [3, 7] is reported as 86.1 ± 22.3%.

For `CCCN1CCc2cccc3c2[C@H]1Cc1c([N+](=O)[O-])cc2c(c1-3)OCO2` [8-Nitro-MDO--NPA], the “Stereotypy (percent of the maximum possible score)” value ([2]; 10 mg/kg i.p.) was 4.4 ± 2.5% and the “Locomotion (percent of control locomotor activity)” value [3, 7] was 74.4 ± 9.8%.

For `CN1CCc2cccc3c2[C@H]1Cc1ccc(O)c(O)c1-3` [APO, apomorphine, reference compound], the duration of action [4] is given as “short duration of action”, the “Stereotypy Score” value ([2]; 1 mg/kg I.P.) is given as 16.5 ± 2.4 and the “Duration of Effect (stereotypy)” value ([2]; 1 mg/kg I.P.) is given as 72 ± 12 min. The “Stereotypy Score” value ([2]; 1 mg/kg P.O.) was 0, the “Duration of Effect (stereotypy)” value ([2]; 1 mg/kg P.O.) was 0 min and the “Stereotypy Score” value ([2]; 1 mg/kg S.C.) was 17.5 ± 0.4. For the same compound, the “Duration of Effect (stereotypy)” value ([2]; 1 mg/kg S.C.) was 70 ± 5 min, the “dependence of duration of action on dose” value ([2]; i.p.) was “much less tendency for duration to increase with dose” and the minimal effective dose ([3]; Rattus norvegicus, ip; read-out: dose producing increases in general motor activity) was > 2 µmol/kg. The “motor activity at lower doses (below 2 μmoles/kg)” value ([3]; i.p.) was “no significant effect”.

In the case of `CN1CCc2cccc3c2[C@H]1Cc1ccc2c(c1-3)OCO2` [MDO-APO], the “Stereotypy” value ([2]; 10 mg/kg i.p.) is reported as “weak and inconsistent stereotypy (not significant statistically)”, the “behavioral effects after oral administration” value ([2]; 1 to 5 mg/kg oral) is reported as “no significant behavioral effects” and the excitatory effects ([3]; 10 mg/kg i.p.) is reported as “relatively weak and inconsistent excitatory effects”. The “inhibition of locomotor activity” value ([3]; 10 mg/kg i.p.) was “significant effect (p 0.01 by t-test) to inhibit locomotor activity”.

In the case of `CCCN1CCc2cccc3c2[C@H]1Cc1ccc(O)c(O)c1-3` [NPA, N-n-Propylnorapomorphine, reference compound], the oral bioavailability ([4]; po) is given as “poor oral bioavailability”, the duration of action [4] is given as “short duration of action” and the “Stereotypy Score” value ([2]; 1 mg/kg I.P.) is given as 17.5 ± 1.0. For the same compound, the “Duration of Effect (stereotypy)” value ([2]; 1 mg/kg I.P.) was 70 ± 10 min, the “Stereotypy Score” value ([2]; 1 mg/kg P.O.) was 0 and the “Duration of Effect (stereotypy)” value ([2]; 1 mg/kg P.O.) was 0 min. The “Stereotypy Score” value ([2]; 1 mg/kg S.C.) was 17.5 ± 0.8, the “Duration of Effect (stereotypy)” value ([2]; 1 mg/kg S.C.) was 72 ± 6 min and the stereotypy scores ([2]; controls (vehicle pretreated)) was 17.4±0.2. The stereotypy scores ([2]; oxidase-inhibited (SKF-525A 40 mg/kg i.p.)) was 17.0±0.3, the “dependence of duration of action on dose” value ([2]; i.p.) was “much less tendency for duration to increase with dose” and the “duration of stereotyped behavioral effects vs other agents” value ([2]; i.p., for MDO-NPA at doses above 1 μmole/kg) was “about equal to, or slightly greater than that of APO”. The “Duodenal Ulcer Intensity (Scale: 0-3)” value [1, 8] was 1.1, the “Duodenal Ulcer Incidence (Positive/Total)” value [1, 8] was 2/9 and the “Duodenal Ulcer Intensity (Scale: 0-3)” value [1, 9] was 0.9. For the same compound, the “Duodenal Ulcer Incidence (Positive/Total)” value [1, 9] was 6/9, the “effect of a single high dose on duodenal ulcers” value ([1]; single high dose) was “active” and the “Adenylate cyclase stimulation (cAMP)” value [5] was 5.67 ± 0.28 pmol/assay. The minimal effective dose ([3]; Rattus norvegicus, ip, read-out: dose producing increases in general motor activity) was > 2 µmol/kg and the “motor activity at lower doses (below 2 μmoles/kg)” value ([3]; i.p.) was “no significant effect”.

`CCCC(C(=O)OCCN(CC)CC)(c1ccccc1)c1ccccc1` [SKF-525A, 2-diethyl aminoethyl-2,2 diphenylvalerate HCl, reference compound] showed a Stereotypy [2, 10] of 0 and an Activity [3, 10] of 422 ± 28 counts/hour.

For `CC(C)C[C@H]1C(=O)N2CCC[C@H]2[C@]2(O)O[C@](NC(=O)[C@@H]3C=C4c5cccc6[nH]c(Br)c(c56)C[C@H]4N(C)C3)(C(C)C)C(=O)N12` [bromocriptine], the “effect on output of gastric acid” value [6] is listed as “diminished the output of gastric acid”.

In the case of `CN1C[C@H](CC#N)C[C@@H]2c3cccc4[nH]c(Cl)c(c34)C[C@H]21` [lergotrile], the “effect on output of gastric acid” value [6] is given as “diminished the output of gastric acid”.

In the case of “(-) 10, 11-Butylidene-2-dioxy-N-n-propylnoraporphine. HCl [Methyl-ethyl MDO--NPA]”, the “Stereotypy” value ([2]; 10 mg/kg i.p.) is reported as “weak stereotypic activity”, the “duration of stereotypic activity” value ([2]; 10 mg/kg i.p.) is reported as “about 60 min” and the “onset of stereotypic activity delayed” value ([2]; 10 mg/kg i.p.) is reported as “about 30 min”. The “Stereotypy (percent of the maximum possible score)” value ([2]; 10 mg/kg i.p.) was 31.5 ± 1.9%.
